Measured values as given in patent US20230113037A1 (Bayer Aktiengesellschaft, priority 2019, published 2023).
pIC50: −log10 of the molar value.

Tests used:
AHR [1] = biological target: T1, AHR (Mus musculus, UniProt P30561); assay: In vitro assay 3: antagonism in mouse cell line (AHR transactivation, firefly luciferase reporter, kynurenic acid prestimulated); format: cell-based; conditions: mouse Hepa 1c1c7 cells, 200 μM kynurenic acid, 20 hours, read-out: AHR Antagonism Mouse IC50
T1 sequence (P30561 1-848 P471L/N533S/M589L): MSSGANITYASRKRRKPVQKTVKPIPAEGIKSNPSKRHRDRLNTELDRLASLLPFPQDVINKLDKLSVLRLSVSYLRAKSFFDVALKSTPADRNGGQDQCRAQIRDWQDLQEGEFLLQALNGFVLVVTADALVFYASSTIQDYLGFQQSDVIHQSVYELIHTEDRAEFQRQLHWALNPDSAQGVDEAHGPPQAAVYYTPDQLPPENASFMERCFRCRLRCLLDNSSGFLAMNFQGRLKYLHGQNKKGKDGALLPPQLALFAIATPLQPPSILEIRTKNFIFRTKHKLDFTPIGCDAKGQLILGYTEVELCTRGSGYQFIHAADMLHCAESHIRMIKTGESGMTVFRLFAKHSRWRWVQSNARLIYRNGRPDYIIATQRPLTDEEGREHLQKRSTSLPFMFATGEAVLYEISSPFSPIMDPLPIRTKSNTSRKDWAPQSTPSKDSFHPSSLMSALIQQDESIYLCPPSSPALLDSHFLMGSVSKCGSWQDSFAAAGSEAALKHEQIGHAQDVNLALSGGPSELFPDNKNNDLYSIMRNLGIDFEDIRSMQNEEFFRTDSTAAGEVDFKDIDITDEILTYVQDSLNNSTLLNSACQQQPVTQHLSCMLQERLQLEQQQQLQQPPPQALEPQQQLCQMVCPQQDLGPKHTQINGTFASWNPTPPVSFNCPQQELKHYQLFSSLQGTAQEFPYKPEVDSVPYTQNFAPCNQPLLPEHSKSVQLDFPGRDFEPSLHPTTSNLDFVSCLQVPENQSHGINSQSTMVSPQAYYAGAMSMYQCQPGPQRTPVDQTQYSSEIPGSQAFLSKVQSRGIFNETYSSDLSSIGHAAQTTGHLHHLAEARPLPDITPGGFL
Procedure, shortened: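 Mouse cells stably carrying a DRE-driven, AHR-inducible firefly luciferase reporter were prestimulated with the endogenous agonist kynurenic acid before compound addition. Luciferase activity was measured by luminescence and normalized to positive and negative controls, with cells lacking kynurenic acid serving as full-inhibition control. Repeat tests are reported as mean or median.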

AHR [2] = biological target: T2, AHR (Homo sapiens, UniProt P35869); assay: In vitro assay 1: antagonism in human cell line (AHR transactivation, firefly luciferase reporter, kynurenic acid prestimulated); format: cell-based; conditions: AHR Antagonism Human IC50 [M]
T2 construct: U87 MG glioblastoma cells (ATCC #HTB-14) endogenously expressing AHR; endogenous in cells; host or cells: U87 MG glioblastoma cells (ATCC #HTB-14)
T2 sequence (P35869 11-848): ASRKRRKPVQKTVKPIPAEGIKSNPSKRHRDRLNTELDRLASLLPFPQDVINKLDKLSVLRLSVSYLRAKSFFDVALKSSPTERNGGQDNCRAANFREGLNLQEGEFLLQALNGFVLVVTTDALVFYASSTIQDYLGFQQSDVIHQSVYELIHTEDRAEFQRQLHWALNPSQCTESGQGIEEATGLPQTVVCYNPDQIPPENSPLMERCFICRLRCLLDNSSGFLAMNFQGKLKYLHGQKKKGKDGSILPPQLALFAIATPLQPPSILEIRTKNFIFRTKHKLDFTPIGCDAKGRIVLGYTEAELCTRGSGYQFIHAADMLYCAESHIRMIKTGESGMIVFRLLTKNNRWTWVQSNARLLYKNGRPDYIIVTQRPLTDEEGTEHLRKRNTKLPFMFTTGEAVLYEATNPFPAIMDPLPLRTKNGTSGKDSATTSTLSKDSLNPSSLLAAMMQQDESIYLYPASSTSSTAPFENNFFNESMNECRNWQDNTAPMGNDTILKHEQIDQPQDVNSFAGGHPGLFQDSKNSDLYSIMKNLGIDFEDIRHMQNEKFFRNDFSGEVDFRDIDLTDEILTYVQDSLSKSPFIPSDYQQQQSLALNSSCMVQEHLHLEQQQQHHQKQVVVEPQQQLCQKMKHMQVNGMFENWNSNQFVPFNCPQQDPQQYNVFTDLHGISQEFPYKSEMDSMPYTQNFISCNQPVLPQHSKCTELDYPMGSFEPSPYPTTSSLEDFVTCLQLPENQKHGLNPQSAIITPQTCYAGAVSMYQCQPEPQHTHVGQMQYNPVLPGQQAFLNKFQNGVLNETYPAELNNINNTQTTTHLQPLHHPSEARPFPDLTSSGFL
Procedure, shortened: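 U87 MG + DRE-firefly/constitutive-Renilla stable reporters; kynurenic acid prestim; dual-luc read; Renilla = tox; normalized vs pos/neg controls (pos: 150 μM KYNA + 5 μM staurosporine).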

SMILES	pIC50 (AHR [1])	IC50 (AHR [2]) [M]
CCC[C@@H](Nc1nc2ccccc2c2nc(-c3cc(Cl)ccc3OC(F)(F)F)nn12)C(=O)NC [Example 501, N^2-{2-[5-chloro-2-(trifluoromethoxy)phenyl][1,2,4]triazolo[1,5-c]quinazolin-5-yl}-N-methyl-D-norvalinamide]	7.04	> 2e-05
CCCCNC(=O)CNc1nc2ccccc2c2nc(-c3cc(Cl)ccc3OC(F)(F)F)nn12 [Example 503, N-butyl-N^2-{2-[5-chloro-2-(trifluoromethoxy)phenyl][1,2,4]triazolo[1,5-c]quinazolin-5-yl}glycinamide]	< 4.70	> 2e-05
CC[C@@H](Nc1nc2ccccc2c2nc(-c3cc(Cl)ccc3OC(F)(F)F)nn12)C(N)=O [Example 504, (2R)-2-({2-[5-chloro-2-(trifluoromethoxy)phenyl][1,2,4]triazolo[1,5-c]quinazolin-5-yl}amino)butanamide]	7.42	3.65e-07
O=C1NCCCC[C@H]1Nc1nc2ccccc2c2nc(-c3cc(Br)ccc3OC(F)(F)F)nn12 [Example 505, (3R)-3-({2-[5-bromo-2-(trifluoromethoxy)phenyl][1,2,4]triazolo[1,5-c]quinazolin-5-yl}amino)azepan-2-one]	7.29	> 2e-05
O=C1NCCCC[C@@H]1Nc1nc2ccccc2c2nc(-c3cc(Br)ccc3OC(F)(F)F)nn12 [Example 506, (3S)-3-({2-[5-bromo-2-(trifluoromethoxy)phenyl][1,2,4]triazolo[1,5-c]quinazolin-5-yl}amino)azepan-2-one]	< 4.70	> 2e-05
CC[C@@H](Nc1nc2ccccc2c2nc(-c3cc(Br)ccc3OC(F)(F)F)nn12)C(N)=O [Example 507, (2R)-2-({2-[5-bromo-2-(trifluoromethoxy)phenyl][1,2,4]triazolo[1,5-c]quinazolin-5-yl}amino)butanamide]	7.39	3.44e-07
COc1ccc(-c2nc3c4ccccc4nc(N[C@@H]4CCCCNC4=O)n3n2)c(OC(F)(F)F)c1 [Example 508, (3R)-3-({2-[4-methoxy-2-(trifluoromethoxy)phenyl][1,2,4]triazolo[1,5-c]quinazolin-5-yl}amino)azepan-2-one]	8.38	3.53e-09
COc1ccc(-c2nc3c4ccccc4nc(N[C@H]4CCCCNC4=O)n3n2)c(OC(F)(F)F)c1 [Example 509, (3S)-3-({2-[4-methoxy-2-(trifluoromethoxy)phenyl][1,2,4]triazolo[1,5-c]quinazolin-5-yl}amino)azepan-2-one]	7.24	1.03e-07
CCC[C@@H](Nc1nc2ccccc2c2nc(-c3ccc(OC)cc3OC(F)(F)F)nn12)C(=O)NC [Example 510, N^2-{2-[4-methoxy-2-(trifluoromethoxy)phenyl][1,2,4]triazolo[1,5-c]quinazolin-5-yl}-N-methyl-D-norvalinamide]	7.93	5.39e-08
CC[C@@H](Nc1nc2ccccc2c2nc(-c3ccc(OC)cc3OC(F)(F)F)nn12)C(N)=O [Example 511, (2R)-2-({2-[4-methoxy-2-(trifluoromethoxy)phenyl][1,2,4]triazolo[1,5-c]quinazolin-5-yl}amino)butanamide]	8.85	7.5e-09
COc1ccc(-c2nc3c4ccccc4nc(N[C@@H]4CCCCNC4=O)n3n2)c(C(F)(F)F)c1 [Example 512, (3R)-3-({2-[4-methoxy-2-(trifluoromethyl)phenyl][1,2,4]triazolo[1,5-c]quinazolin-5-yl}amino)azepan-2-one]	8.61	1.04e-08
COc1ccc(-c2nc3c4ccccc4nc(N[C@H]4CCCCNC4=O)n3n2)c(C(F)(F)F)c1 [Example 513, (3S)-3-({2-[4-methoxy-2-(trifluoromethyl)phenyl][1,2,4]triazolo[1,5-c]quinazolin-5-yl}amino)azepan-2-one]	7.45	2.66e-07
